In ChEMBL document CHEMBL5120813, “Polysubstituted Cyclopentene Benzamides and Dianthramide Alkaloids from Delphinium anthriscifolium Hance” (2022):

Test system: RAW264.7
Assay: Antiinflammatory activity in mouse RAW264.7 assessed as inhibition of LPS-induced NO production preincubated for 30 mins followed by LPS stimulation measured after 24 hrs by Griess reagent based assay relative to control
Type: functional
Parameters: concentration or dose not given beside the values
Details: 0.5 h

SMILES | inhibition (INH) [%]
COC(=O)c1cc(O)c(O)cc1NC(=O)c1ccccc1O | 57.6
COC(=O)c1cc(O)c(O)cc1NC(=O)c1cc(O)ccc1OC | 78.8
COC(=O)c1cc(O)c(O)cc1NC(=O)c1cc(O)ccc1O | 40.3
COC(=O)c1c(NC(=O)c2cccc(O)c2OC)ccc(O)c1OC | 43
O=c1c(O)c(-c2ccc(O)c(O)c2)oc2cc(O)cc(O)c12 [QUERCETIN] | 48.6
COC(=O)c1cc(O)ccc1NC(=O)c1cccc(O)c1OC | 61.2
